Measured values as given in US7115754B2, “Pyrrolidine derivatives as oxytocin antagonists” (Applied Research Systems ARS Holding N.V., priority 2002, dated 2006).
Each block holds one compound with its values, some of them ahead of it.

What was measured:
[1] = biological target: T1, hOT receptor (HEK293EBNA cells expressing the hOT receptor) (Homo sapiens, UniProt P30559); test: Functional assay No. 1: inhibition of oxytocin mediated Ca2+-mobilization by FLIPR; assay type: cell-based; conditions: OT 40 nM, fluo-4, read-out: Inhibition of Ca2+ mobilisation, hOT-R IC50
T1 construct: expressed in transfected cells; host or cells: HEK293EBNA
T1 sequence (P30559 1-389): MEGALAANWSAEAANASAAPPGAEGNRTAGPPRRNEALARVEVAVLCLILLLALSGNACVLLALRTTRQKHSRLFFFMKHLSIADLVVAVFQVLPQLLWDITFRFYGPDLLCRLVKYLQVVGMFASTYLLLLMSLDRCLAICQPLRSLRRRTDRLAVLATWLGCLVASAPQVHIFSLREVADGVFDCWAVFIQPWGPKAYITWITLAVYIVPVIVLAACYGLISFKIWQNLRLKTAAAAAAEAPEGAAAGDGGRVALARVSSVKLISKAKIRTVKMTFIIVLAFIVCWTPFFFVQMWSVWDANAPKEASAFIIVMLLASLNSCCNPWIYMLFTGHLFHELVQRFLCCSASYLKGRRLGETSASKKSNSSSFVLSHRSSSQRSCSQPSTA
Procedure: This assay allows the measurement of the inhibition of OT/OT-R mediated calcium mobilization by test compounds of formula (I).
Preparing the plates: FLIPR-plates were pre-coated with PLL (Poly-L-Lysine) 10 μg/ml+0.1% gelatine to attach HEK293EBNA cells (Human Embryonic Kidney cells expressing the hOT receptor) and incubated for 30 min up to 2 days at 37° C. The cells were plated out into 96-well-plates (60000 cells/well).
Labelling with fluo-4: 50 μg of fluo-4 (Ca2+ sensitive fluorescent dye) were dissolved in 20 μl pluronic acid (20% in DMSO). The dissolved fluo-4 was then diluted in 10 ml DMEM (Dubecco's Minimal Essential Medium)-F12 culture medium. The plates were washed one time with DMEM-F12 medium. […] Fluo-4 is taken up by the cytoplasm of the cells. […]
The relative fluorescence of Fluo-4 (λex=488 nm, λem=590 nm) is then measured by the FLIPR in presence or absence of compounds of formula (I). The fluorescence of the marker being sensitive to the amount of Ca^2+, the Ca^2+ movements can be detected. Then, it can be determined the ability of compounds of formula (I) to antagonize the oxytocin-induced intracellular Ca^2+-mobilization mediated by the oxytocin receptor.
The activities of the pyrrolidine derivatives according to formula I were assessed using the above described in vitro biological assay. […]

[2] = tested on: oxytocin-induced uterine contractions in the rat; test: In vivo model for inhibition of uterine contractions; conditions: 40 min after test compound administration
Procedure: The ability of compounds of formula (I) to effectively antagonize oxytocin-induced IP3-synthesis mediated by the oxytocin receptor, can be assessed using the above described in vitro biological assay. • d) In vivo Model for Inhibition of Uterine Contractions
The assay evaluates the biological effect of tested compounds in an in vivo model of preterm labor, premature birth.
Non-pregnant Charles River CD (SD) BR female rats (9–10 weeks old, 200–250 g) were treated at 18 and 24 hours before the experiment with 250 μg/kg, i.p. diethylstilbestrol (DES). For the assay, the animal was anaesthetised with urethane (1.75 g/kg, i.p.) and placed on a homeothermic operating table. The trachea was isolated and cannulated with a suitable polyethylene (PE) tubing. […]
The contractile response of the uterus to oxytocin was quantified by measuring the intra-uterine pressure and the number of contractions. The effect of the reference and test compounds was evaluated by comparing pre- and post-treatment pressure values. In addition, contractions of the uterine were measured at 5, 40, 75, 110, 145 and 180 minutes after test compound administration.
The activities of the pyrrolidine derivatives claimed in the Formula I can be assessed using the above described in vivo biological assay. […]

[3] = biological target: T2, human Oxytocin (hOT) receptor (Homo sapiens, UniProt P30559); test: In vitro competition binding assay on hOT receptor with scintillation proximity assay; conditions: inhibition of [125I]-OVTA binding, membranes from HEK293EBNA cells expressing hOT receptor; read-out: Binding Affinity hOT-R (Ki [nM])
T2 construct: expressed in transfected cells; host or cells: HEK293EBNA (membranes)
T2 sequence (P30559 1-389): T1 sequence (P30559 1-389)
Procedure: The compounds according to Formula I may be subjected to the following assays: • a) In vitro Competition Binding Assay on hOT Receptor with Scintillation Proximity Assay (11).
This assay allows to determine the affinity of the test compounds for the human Oxytocin (hOT) receptor. Membranes from HEK293EBNA (cells expressing the hOT receptor) were suspended in buffer containing 50 mM Tris-HCl, pH 7.4, 5 mM MgCl2 and 0.1% BSA (w/v). The membranes (2–4 μg) were mixed with 0.1 mg SPA bead coated with wheat-germ aglutinin (WGA-PVT-Polyethylene Imine beads from Amersham) and 0.2 nM of the radiolabelled [^125I]-OVTA (OVTA being Ornithin Vasoactive, an analogue of OT for competitive binding experiments). Non-specific binding was determined in the presence of 1 μM Oxytocin. The total assay volume was 100 μl. The plates (Corning® NBS plate) were incubated at room temperature for 30 min and counted on a Mibrobeta® plate scintillation counter. Competitive binding was performed in presence of compounds of formula (I) at the following concentrations: 30 μM, 10 μM, 1 μM, 300 nM, 100 nM, 10 nM, 1 nM, 100 pM, 10 pM. The competitive binding data were analysed using the iterative, nonlinear, curve-fitting program, “Prism” (GraphPad Software, Inc).
The ability of pyrrolidine derivatives of formula (I) to inhibit the binding of ^125-OVTA to the OT-receptor was assessed using the above described in vitro biological assay. Representative values for some example compounds are given in Table I where the binding affinity of test compounds from the above examples is expressed by the inhibition constant (Ki; nM). From these values, it can be derived that said test compounds according to formula I do show a significant binding to the oxytocin receptor.

Ki [3]: 140 nM
Structure (SMILES): CON=C1C[C@@H](COCC(=O)NCCN2CCCC2)N(C(=O)c2ccc(-c3ccccc3)cc2)C1 [Compound 7, 2-{[(2S,4EZ)-1-(1,1′-biphenyl-4-ylcarbonyl)-4-(methoxyimino)pyrrolidin-2-yl]methoxy}-N-(2-pyrrolidin-1-ylethyl)acetamide]

Ki [3]: 55 nM
Structure (SMILES): COC[C@@H]1CC(=NOC)CN1C(=O)c1ccc(-c2ccccc2)cc1 [Compound 8, (3EZ,5S)-1-(1,1′-biphenyl-4-ylcarbonyl)-5-(methoxymethyl)pyrrolidin-3-one O-methyloxime]

Ki [3]: 120 nM
Structure (SMILES): CON=C1C[C@@H](CCO)N(C(=O)c2ccc(-c3ccccc3)cc2)C1 [Compound 16, (3EZ,5S)-1-(1,1′-biphenyl-4-ylcarbonyl)-5-(2-hydroxyethyl)pyrrolidin-3-one O-methyloxime]

More lines, now with the values behind:

Structure (SMILES): CON=C1C[C@@H](CO)N(C(=O)c2ccc(-c3ccccc3)cc2)C1 [Compound 2, (3EZ,5S)-1-(1,1′-biphenyl-4-ylcarbonyl)-5 (hydroxymethyl) pyrrolidin-3-one O-methyloxime]
IC50 [1]: 90 nM | % Reduction of Uterine Contraction ([2]; 10 mg/kg per i.v.): 39.8 ± 10.0% | % Reduction of Uterine Contraction ([2]; 30 mg/kg per os): 50.9 ± 8.6% | Ki [3]: 139 nM

Structure (SMILES): CO/N=C1/C[C@@H](CO)N(C(=O)c2ccc(-c3ccccc3)cc2)C1 [Compound 4, (3Z,5S)-1-(1,1′-biphenyl-4-ylcarbonyl)-5-(hydroxymethyl) pyrrolidin-3-one O-methyloxime]
IC50 [1]: 10 nM | Ki [3]: 94.9 nM

Structure (SMILES): CON=C1C[C@@H](CN2C(=O)c3ccccc3C2=O)N(C(=O)c2ccc(-c3ccccc3)cc2)C1 [Compound 12, 2-{[(2S,4EZ)-1-(1,1′-biphenyl-4-ylcarbonyl)-4-(methoxyimino)pyrrolidin-2-yl]methyl}-1H-isoindole-1,3(2H)-dione]
Ki [3]: 5.1 nM
